Data taken from patent publication US20070212428A1, “METHODS AND COMPOSITIONS FOR TREATING MOOD DISORDER” (MOOD MANAGEMENT SCIENCES, INC., priority 2004, published 2007).

Assays:
[1] = system: monoamine oxidase; conditions: cited from earlier work
[2] = system: dopamine neuronal reuptake; conditions: cited from earlier work
[3] = system: treatment resistant depression; assay: Example 11: case, treatment resistant depression; format: in vivo, human; conditions: under prior psychiatrist
[4] = cited from earlier work; for elimination half-life: plasma
[5] = system: norepinephrine neuronal reuptake; conditions: cited from earlier work
[6] = system: 5-HT1A and 5-HT1B receptors; conditions: cited from earlier work
[7] = system: peripheral al adrenergic and muscarinic receptors; conditions: cited from earlier work
[8] = system: serotonin 5-HT2 and 5-HT3 receptors; conditions: cited from earlier work
[9] = system: central presynaptic a2 adrenergic inhibitory autoreceptors and heteroreceptors; conditions: cited from earlier work
[10] = target: T1, histamine H1 receptor (Homo sapiens, UniProt P35367); conditions: cited from earlier work
T1 sequence (P35367 whole entry, species assumed): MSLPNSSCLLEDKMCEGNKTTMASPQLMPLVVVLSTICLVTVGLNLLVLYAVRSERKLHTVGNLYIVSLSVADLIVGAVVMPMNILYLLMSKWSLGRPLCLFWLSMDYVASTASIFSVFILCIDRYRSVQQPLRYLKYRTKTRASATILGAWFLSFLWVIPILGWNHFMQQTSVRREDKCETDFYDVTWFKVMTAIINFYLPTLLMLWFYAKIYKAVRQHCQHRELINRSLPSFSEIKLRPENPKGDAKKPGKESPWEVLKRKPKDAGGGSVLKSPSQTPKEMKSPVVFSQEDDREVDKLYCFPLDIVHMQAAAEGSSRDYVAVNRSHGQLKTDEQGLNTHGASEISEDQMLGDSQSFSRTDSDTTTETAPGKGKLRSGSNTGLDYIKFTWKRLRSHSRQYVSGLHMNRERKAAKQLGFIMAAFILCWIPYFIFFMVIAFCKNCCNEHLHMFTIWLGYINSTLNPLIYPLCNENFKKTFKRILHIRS

[11] = system: GABAA, BZD, and β adrenergic receptors; conditions: cited from earlier work
[12] = system: anxiety and depression; conditions: human, in vivo; cited from earlier work
[13] = system: dopamine D1 and haloperidol-sensitive sigma site; conditions: cited from earlier work
[14] = system: serotonin 5-HT1C, 5-HT1D and 5-HT1A receptors; conditions: cited from earlier work
[15] = system: cholinergic muscarinic or β1 and β2 adrenergic receptors; conditions: cited from earlier work
[16] = system: treatment resistant depression; format: in vivo, human; conditions: 150 mg titrated up to 225 mg
[17] = system: dopamine D2 and D3, serotonin 5-HT2A, 5-HT2C, 5-HT1D and α-adrenergic receptors; conditions: cited from earlier work
[18] = system: D2, 5-HT2A, and 5-HT1D receptors; conditions: cited from earlier work
[19] = target: 5-HT1A receptor (Homo sapiens, UniProt P08908); conditions: cited from earlier work
Chain of 5-HT1A receptor (P08908 whole entry): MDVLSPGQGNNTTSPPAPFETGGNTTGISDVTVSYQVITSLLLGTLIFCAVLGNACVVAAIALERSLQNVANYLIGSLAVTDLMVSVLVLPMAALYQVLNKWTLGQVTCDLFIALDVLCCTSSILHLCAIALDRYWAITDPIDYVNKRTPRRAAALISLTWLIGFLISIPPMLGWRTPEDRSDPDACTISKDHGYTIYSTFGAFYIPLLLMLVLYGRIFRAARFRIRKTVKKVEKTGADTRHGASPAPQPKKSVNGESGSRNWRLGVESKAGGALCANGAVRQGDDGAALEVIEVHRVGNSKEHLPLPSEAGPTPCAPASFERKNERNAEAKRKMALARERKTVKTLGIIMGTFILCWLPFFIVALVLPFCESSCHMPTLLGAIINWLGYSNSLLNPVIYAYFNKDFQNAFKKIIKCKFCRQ

[20] = system: other receptor/binding sites tested, including the cholinergic muscarinic receptor; conditions: cited from earlier work
[21] = system: neuronal serotonin reuptake; conditions: cited from earlier work
[22] = target: T1, histamine H1 receptor; conditions: cited from earlier work; remark: listed apart in the source

CC(NC(C)(C)C)C(=O)c1cccc(Cl)c1.Cl (racemic) [bupropion, (±)-1-(3-chlorophenyl)-2-[(1,1-dimethylethyl)amino]-1-propanone hydrochloride]
inhibition of monoamine oxidase [1]: does not inhibit | effect on dopamine reuptake (in words) [2]: relatively weak inhibitor | symptomatic success in MDD, first episode [3]: modest symptomatic success | elimination half-life [4]: approximately 21 hours | effect on norepinephrine reuptake (in words) [5]: relatively weak inhibitor

CN1CCN2c3ncccc3Cc3ccccc3C2C1 (racemic) [mirtazapine, 1,2,3,4,10,14b-hexahydro-2-mehtylpryazino [2.1-a] pyrido [2,3-c] benzazepine]
affinity [6]: no significant affinity | functional activity [7]: moderate antagonist | functional activity [8]: potent antagonist | functional activity [9]: antagonist | functional activity [10]: potent antagonist

Cc1cc2c(s1)Nc1ccccc1N=C2N1CCN(C)CC1 [olanzapine, 2-methyl-4-(4-methyl-1-piperazinyl)-10H-thieno[2,3-b][1,5]benzodiazepine]
binding [11]: binds weakly

CNCCCC1c2ccccc2C=Cc2ccccc21.Cl [protriptyline, N-methyl-5H-dibenzo[a,d]-cycloheptene-5-propanamine hydrochloride]
time to clinical effect [12]: one week | time to significant plasma levels ([4]; human, in vivo): ≤ 2 h | oral absorption (in words) ([4]; oral administration): well absorbed

Cc1nc2n(c(=O)c1CCN1CCC(c3noc4cc(F)ccc34)CC1)CCCC2 [risperidone, 3-[2-[4-(6-fluoro-1,2-benzisoxazol-3-yl)piperidino]ethyl]-2-methyl-6,7,8,9-tetrahydro-4H-pyrido-[1,2-a]pyrimidin-4-one]
affinity [13]: weak affinity | affinity [14]: low to moderate affinity | affinity [15]: no affinity

CN[C@H]1CC[C@@H](c2ccc(Cl)c(Cl)c2)c2ccccc21.Cl [sertraline, (1S-cis)-4-(3,4-dichlorophenyl)-1,2,3,4-tetrahydro-N-methyl-1-naphthylamine hydrochloride]
response of first episode of Treatment Resistant Depression [16]: partial response | effect on dopamine reuptake (in words) [2]: weak effects | reduction of elimination in elderly patients ([4]; elderly patients): approximately 40% | elimination half-life [4]: about 26 hours | effect on norepinephrine reuptake (in words) [5]: weak effects

O=C1Cc2cc(CCN3CCN(c4nsc5ccccc45)CC3)c(Cl)cc2N1 [ziprasidone, 5-[2-[4-(1,2-benzoisothiazol-3-yl)-1-piperazinyl]ethyl]-6-chloro-1,3-dihydro-2H-indol-2-one]
in vitro binding affinity [17]: high in vitro binding affinity | functional activity [18]: antagonist | functional activity [19]: agonist | affinity [20]: No appreciable affinity | inhibition of serotonin reuptake (in words) [21]: inhibited | in vitro binding affinity [22]: moderate affinity | elimination half-life [4]: about 7 hours | time to steady state plasma concentrations ([4]; repeated dosing): one to three | effect on norepinephrine reuptake (in words) [5]: inhibited
